The source of these data is PubChem BioAssay AID1054 (Sanford-Burnham Center for Chemical Genomics, 2008).

The assay deals with Dual specificity protein phosphatase 6 (Rattus norvegicus) (UniProt Q64346). As to the kind of experiment: redox-state modulators of MKP-3 activity, biochemical, rat enzyme, secondary assay (AID 1054). As to conditions: recombinant MKP-3 phosphatase activity.

The structures appear in SMILES notation. Activity calls are given as the source filed them. The rule behind the calls is not given here. A value given as a limit tells only on which side of the number the result lay.

Dual specificity protein phosphatase 6 (Rattus norvegicus), sequence (Q64346 whole entry, looked up): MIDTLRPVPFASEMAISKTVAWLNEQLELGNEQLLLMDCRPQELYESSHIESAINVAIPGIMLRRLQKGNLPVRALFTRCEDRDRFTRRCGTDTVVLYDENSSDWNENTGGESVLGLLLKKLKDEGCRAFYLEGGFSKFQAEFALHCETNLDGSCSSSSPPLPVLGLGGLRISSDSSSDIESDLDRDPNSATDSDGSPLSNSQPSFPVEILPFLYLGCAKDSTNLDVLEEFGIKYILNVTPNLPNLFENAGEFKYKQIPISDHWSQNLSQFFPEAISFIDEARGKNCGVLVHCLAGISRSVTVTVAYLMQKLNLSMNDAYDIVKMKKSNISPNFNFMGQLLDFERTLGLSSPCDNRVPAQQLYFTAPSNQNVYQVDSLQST

For `CCCCCCn1c(=O)nc(NCc2ccccc2OC)[nH]c1=O`, the IC50 was > 100 µM (inactive).
The same measure for `COc1ccc(-n2c(=O)nc(NCCc3cccc(Cl)c3)[nH]c2=O)cc1`: > 100 µM (inactive); for `CCOC(=O)C1=C(C)N=c2s/c(=C/c3cc(Cl)c(OCC(=O)O)c(OC)c3)c(=O)n2C1c1ccccc1Cl` (configuration not stated): 9.75 µM.
As for `C[C@@H](C(N)=O)n1c(=O)n(Cc2ccccc2)c(=O)n(-c2ccccc2)c1=O`, the IC50 is > 100 µM (inactive).
For `COc1cc(C(=S)NC2CCCCC2)ccc1O`, the IC50 was 6.35 µM.
For `Cc1cc(NC(=O)c2cccs2)no1`, the IC50 was > 100 µM (inactive).
In the case of `COc1ccc(N2Cc3cccc(C(=O)O)c3C2=O)cc1` it was > 100 µM (inactive).
In the case of `CCCn1c(=O)nc(NCc2ccc(C)cc2)[nH]c1=O` it was > 100 µM (inactive).
In the case of `O=C(O)C1Nc2ccc([N+](=O)[O-])cc2C2C=CCC12` (configuration not stated) it was 47.5 µM; in that of `CCC(CC)c1nnc(NC(=O)Cc2cccs2)s1`, > 100 µM (inactive); in that of `CC(C)[C@@H](C(N)=O)n1c(=O)[nH]c(=O)n(-c2ccc(Cl)cc2)c1=O`, > 100 µM (inactive).
On to `Cc1ccc2c(c1Cl)NC(C(=O)O)C1CC(Sc3ccccc3[N+](=O)[O-])C(Cl)C21` (configuration not stated), for which the IC50 is 42.6 µM.
Take `Cn1c(=O)n(CC(N)=O)c(=O)n(-c2ccccc2)c1=O`: the IC50 is > 100 µM (inactive).
On to `O=C(O)c1ccccc1-c1ccc(/C=c2\sc3nc4cc(Br)cnc4n3c2=O)o1`, for which the IC50 is 3.11 µM.
For `O=C(Oc1ccc2c(c1)C1C=CCC1C(C(=O)O)N2)c1ccc(Cl)cc1Cl` (configuration not stated), the IC50 is 15.6 µM.
The same measure for `CSc1nnc(-c2ccco2)c(-c2ccco2)n1`: 99.7 µM.
Turning to `NS(=O)(=O)c1ccc2c(c1)C1C=CCC1C(C(=O)O)N2` (configuration not stated), the IC50 was > 100 µM (inactive).
As for `CC1=C(C(=O)OC(C)C)C(c2ccc(Cl)cc2)n2c(sc(=Cc3ccc(OCC(=O)O)cc3)c2=O)=N1` (configuration not stated), the IC50 was 10.1 µM.
As to `O=C(O)C1Nc2c(cccc2S(=O)(=O)c2ccccc2)C2C=CCC12` (configuration not stated), the IC50 is 58.7 µM.
Regarding `CCOC(=O)C1Nc2c(O)cc(C)cc2C2C=CCC12` (configuration not stated), the IC50 is > 100 µM (inactive).
The same measure for `COc1cc(C(=S)NCc2ccccc2)ccc1O`: 4.46 µM; for `O=C(O)c1ccc([N+](=O)[O-])c2c1NC(C(=O)O)C1CC=CC21` (configuration not stated): > 100 µM (inactive).
On to `COc1cc(C(=S)N2CCC(C)CC2)ccc1O`, for which the IC50 was 32.8 µM.
In the case of `Cc1ccc(CC(=O)Nc2cc(C)on2)cc1` it was > 100 µM (inactive); in that of `CCOC(=O)C1=C(C)N=c2sc(=Cc3ccc(OCC(=O)O)cc3)c(=O)n2C1c1ccc(Cl)cc1` (configuration not stated), 16.8 µM.
In the case of `Cc1ccc(O)c2c1C1C=CCC1C(C(=O)O)N2` (configuration not stated) it was 86.4 µM.
The same measure for `Cc1cc(NC(=O)/C=C/c2cccs2)no1`: > 100 µM (inactive).
With `Cc1cc(C)c2c(c1)C1C=CCC1C(C(=O)O)N2` (configuration not stated), the IC50 is > 100 µM (inactive).
The same measure for `Cc1ccc2c(c1C)NC(C(=O)O)C1CC=CC21` (configuration not stated): 5.96 µM; for `CCOC(=O)C1=C(C)N=c2s/c(=C\c3cc(Cl)c(OCC(=O)O)c(Cl)c3)c(=O)n2C1c1cccc(OC)c1` (configuration not stated): 9.64 µM.
The same measure for `O=C1c2ccccc2CC1Sc1nnc(-c2ccco2)c(-c2ccco2)n1` (configuration not stated): 42 µM.
The same measure for `CCOC(=O)C1Nc2c(OC)cccc2C2OCCCC12` (configuration not stated): > 100 µM (inactive).

As a reminder, the IC50 is the concentration needed to halve the response being measured.
